Data: patent US20240252496A1, “SELECTIVE HYPOTHALAMUS PERMEABLE HDAC6 INHIBITORS FORTREATMENT OF LEPTIN-RESISTANT OBESITY” (The Children’s Medical Center Corporation, priority 2022, published 2024)
“Also recorded” adds a separate entry of the source.

How the values were obtained:
DIO mice [1] = assay: Glucose homeostasis in chronically treated DIO mice (GTT, ITT, insulin, HOMA-IR, liver H&E); assay type: in vivo; conditions: for blood glucose levels / glucose tolerance (GTT): after 1 week; for circulating/serum insulin levels / hepatic steatosis (liver H&E) / insulin resistance (HOMA-IR): after 3 weeks
Protocol: DIO mice were treated with ACY775 (10 mg/kg/day, i.p.) for 3 weeks. Daily body weight (g) of DIO mice treated with vehicle (n=17) or ACY775 (n=17) during 3 weeks of treatment was determined. Daily food intake (g) during 3 weeks of vehicle or ACY775 treatment was assessed. 24 hours' food intake per mouse during the first week of vehicle or ACY775 treatment was determined. Serum leptin (ng/ml) levels after 3 weeks of vehicle (n=24) or ACY775 (n=24) treatment was assessed. Lean mass (g), fat mass (g) and fat percentage (%) after 3 weeks of vehicle (n=17) or ACY775 (n=17) treatment measured by Dual-energy X-ray absorptiometry (DEXA) scan. DEXA scans were performed in two different cohorts. Glucose tolerance test (GTT) after 1 week of vehicle (n=33) or ACY775 (n=26) treated DIO mice was assessed. Area of curve (AOC) analysis for GTT was performed. Blood glucose (mg/dl) levels after 1 week of vehicle (n=17) or ACY775 (n=16) were assessed in treated DIO mice. Insulin tolerance test (ITT) was performed after 2 weeks of vehicle (n=31) or ACY775 (n=21) treatment of DIO mice. Serum insulin (ng/ml) levels were measured after 3 weeks of vehicle (n=22) or ACY775 (n=21) in treated DIO mice. A homeostatic model assessment of insulin resistance (HOMA-IR) was analyzed after 3 weeks of vehicle (n=14) or ACY775 (n=13) treated DIO mice. […]
Blood glucose (mg/dl) levels were measured after 1 week of vehicle (n=16) or ricolinostat (n=16) treated DIO mice. GTT after 1 week of vehicle (n=17) or ricolinostat (n=16) treatment of DIO mice was assessed. AOC analysis for GTT was performed. ITT after 2 weeks of vehicle (n=17) or ricolinostat (n=16) treated DIG mice was measured. Serum insulin (ng/ml) levels after 3 weeks of vehicle (n=8) or ricolinostat (n=8) treatment were measured in DIO mice. Liver sections from 3 weeks of vehicle or ricolinostat treated DIG mice were stained by H&E.

HDAC6 = assay: Ac-tubulin immunoblotting in HEK293 cells; assay type: cell-based
DIO mice [2] = assay: Acute leptin co-treatment in DIO mice (body weight, food intake 15 h); assay type: in vivo; conditions: for body weight 15 h after leptin in inhibitor-pretreated mice / food intake 15 h after leptin in inhibitor-pretreated mice: leptin 1 mg/kg i.p., ACY775 10, ACY738 50, ricolinostat 25 mg/kg/day i.p.; for body weight, inhibitor alone: 3 days pretreatment i.p., ACY775 10, ricolinostat 25 mg/kg; for food intake, inhibitor alone: ACY775 10, ricolinostat 25 mg/kg i.p.
Protocol: DIO mice were pretreated with ACY775 (10 mg/kg/day, i.p.) or vehicle for 3 days, which was followed by co-treatment with ACY775 (or vehicle) and leptin (1 mg/kg, i.p.) (or saline) (n=9 for each group), % change in body weight 15 h after leptin treatment, food intake (g) during the 15 h period after leptin treatment. The results in were reproduced in two independent experiments.
Diet induced obese (DIO) mice were pretreated with ACY775 (10 mg/kg/day, i.p.) or vehicle for 3 days, which was followed by co-treatment with ACY775 (or vehicle) and leptin (1 mg/kg, i.p.) (or saline) (n=9 for each group). Mice were evaluated for % change in body weight 15 h after leptin treatment, and food intake (g) during the 15 h period after leptin treatment.
DIO mice were pretreated with ricolinostat (25 mg/kg/day, i.p.) or vehicle for 3 days, which was followed by co-treatment with ricolinostat (or vehicle) and leptin (1 mg/kg, i.p.) (or saline) (n=32 for each group). Change in body weight 15 h after leptin treatment, and food intake (g) during the 15 h period after leptin treatment were determined. The results were reproduced in two independent experiments.

DIO mice [3] = assay: Chronic treatment of DIO mice (body weight, food intake, leptin, DEXA); assay type: in vivo; conditions: for body weight after treatment / decrease in body weight: 3 weeks; for body weight after treatment / decrease in body weight / body weight before treatment / daily food intake under treatment: ACY775 10, ACY738 50 mg/kg/day i.p.; for fat mass (DEXA) / fat percentage (DEXA) / lean mass (DEXA) / circulating/serum leptin levels: after 3 weeks; for circulating/serum leptin levels: ACY775 10, ACY738 50, ricolinostat 50 mg/kg i.p.; for food intake and total body fat mass: high fat diet induced mice, summary
Protocol: DIO mice were treated with ACY775 (10 mg/kg/day, i.p.) for 3 weeks. Daily body weight (g) of DIO mice treated with vehicle (n=17) or ACY775 (n=17) during 3 weeks of treatment was determined. Daily food intake (g) during 3 weeks of vehicle or ACY775 treatment was assessed. 24 hours' food intake per mouse during the first week of vehicle or ACY775 treatment was determined. Serum leptin (ng/ml) levels after 3 weeks of vehicle (n=24) or ACY775 (n=24) treatment was assessed. Lean mass (g), fat mass (g) and fat percentage (%) after 3 weeks of vehicle (n=17) or ACY775 (n=17) treatment measured by Dual-energy X-ray absorptiometry (DEXA) scan. DEXA scans were performed in two different cohorts. Glucose tolerance test (GTT) after 1 week of vehicle (n=33) or ACY775 (n=26) treated DIO mice was assessed. Area of curve (AOC) analysis for GTT was performed. Blood glucose (mg/dl) levels after 1 week of vehicle (n=17) or ACY775 (n=16) were assessed in treated DIO mice. Insulin tolerance test (ITT) was performed after 2 weeks of vehicle (n=31) or ACY775 (n=21) treatment of DIO mice. Serum insulin (ng/ml) levels were measured after 3 weeks of vehicle (n=22) or ACY775 (n=21) in treated DIO mice. A homeostatic model assessment of insulin resistance (HOMA-IR) was analyzed after 3 weeks of vehicle (n=14) or ACY775 (n=13) treated DIO mice.
Food intake was analyzed hourly until 3:00 am. […] DEXA scans were performed in two different cohorts.
DIO mice then were treated with ricolinostat (50 mg/kg, i.p.) for 3 weeks. Daily body weight (g), daily food intake (g), serum leptin (ng/ml) levels after 3 weeks of vehicle (n=8) or ricolinostat (n=8) treatment, lean mass (g); fat mass and fat percentage (%) after 3 weeks of vehicle (n=16) or ricolinostat (n=17) treatment measured by DEXA scan were determined.
Studies were conducted as described above with reference to ACY775.
DIO mice then were treated with bavarostat (10 mg/kg, i.p.) for 3 weeks and daily body weight (g) of DIO mice treated with Veh (n=9) or bavarostat (n=9) measured during the three weeks of treatment period. Daily food intake (g) during 3 weeks of Veh or bavarostat treatment was also measured.
ACY1083 was administered to DIO mice as described in Example 3.

Structure (SMILES)	insulin tolerance test (ITT) / insulin sensitivity (DIO mice [1])	blood glucose levels (DIO mice [1])	glucose tolerance (GTT) (DIO mice [1])	circulating/serum insulin levels (DIO mice [1])	hepatic steatosis (liver H&E) (DIO mice [1])	insulin resistance (HOMA-IR) (DIO mice [1])	tubulin acetylation (HDAC6 inhibitor activity) in cells (HDAC6)	body weight 15 h after leptin in inhibitor-pretreated mice (DIO mice [2])	food intake 15 h after leptin in inhibitor-pretreated mice (DIO mice [2])	average food intake during the first week vs control (DIO mice [3]; DIO mice)	daily food intake before treatment (DIO mice [3]; DIO mice) [g]	body weight after treatment (DIO mice [3]; DIO mice) [g]	decrease in body weight (DIO mice [3]; DIO mice)	fat mass (DEXA) (DIO mice [3]; DIO mice)	fat percentage (DEXA) (DIO mice [3]; DIO mice)	lean mass (DEXA) (DIO mice [3]; DIO mice)	circulating/serum leptin levels (DIO mice [3]; DIO mice)	body weight before treatment (DIO mice [3]; DIO mice) [g]	daily food intake under treatment (DIO mice [3]; DIO mice) [g]	food intake and total body fat mass (DIO mice [3])	also measured
O=C(NO)c1cnc(NC2(c3ccccc3)CC2)nc1 [ACY738]	improved insulin tolerance	significantly reduced	significant improvement of glucose homeostasis	reduced insulin levels	improved hepatic steatosis	ameliorated insulin resistance	inhibits the HDAC6 activity	significantly augmented the acute leptin-induced reduction in body weight and food intake	significantly augmented the acute leptin-induced reduction in body weight and food intake	severely reduced	2.35 ± 0.10	37.74 ± 1	20.21%±1.32%	significantly decreased	significantly decreased	no change in the lean body mass	significantly decreased	46.43 ± 0.74	1.32 ± 0.05	significant reduction of food intake and total body fat mass	
O=C(NO)c1cnc(NC2(c3cccc(F)c3)CCCCC2)nc1 [ACY775, 2-[[1-(3-fluorophenyl)cyclohexyl]amino]-N-hydroxy-5-pyrimidinecarboxamide]	significant difference between ACY775-treated mice and those treated with vehicles	significantly reduced	significantly improved glucose tolerance	significantly reduced the circulating insulin levels	almost completely abolished hepatic steatosis	significantly reduced the insulin resistance	increases tubulin acetylation	further reduction in bodyweight	further augmented the negative effect of leptin on food intake	highly significant reduction	2.54 ± 0.10	33.53 ± 1.19	29.58%±1.79%	significantly lower	significantly lower	did not alter the lean mass	significantly downregulated	48.25 ± 0.87	0.85 ± 0.06	significant reduction of food intake and total body fat mass	body weight, inhibitor alone (DIO mice [2]): significantly decreased the bodyweight; food intake, inhibitor alone (DIO mice [2]): reduced the food intake
O=C(CCCCCCNC(=O)c1cnc(N(c2ccccc2)c2ccccc2)nc1)NO [Ricolinostat]	did not improves glucose tolerance (FIG. 8M) or insulin sensitivity	did not reduce blood glucose levels	did not improves glucose tolerance	did not reduce insulin levels	no decrease in the hepatic steatosis		confirmation of Ricolinstat's HDAC6 inhibitory activity	did not reduce the body weight	no effect on the food intake												body weight, inhibitor alone (DIO mice [2]): did not decrease the bodyweight; food intake, inhibitor alone (DIO mice [2]): no effect on the food intake; body weight effect of chronic treatment (DIO mice [3]; DIO mice, 3 weeks i.p., bavarostat 10, citarinostat 25, ricolinostat 50 mg/kg): minimal decrease in bodyweight for the first couple of days without creating any meaningful or significant decreases; also recorded: does not reduce body weight; food intake during chronic treatment (DIO mice [3]; DIO mice, 3 weeks i.p., bavarostat 10, ricolinostat 50 mg/kg): reduced transitionally during the first 2-3 days of treatment but then rebounded
